In patent publication US12622910B2, “Inhibitors of Bruton's tyrosine kinase and methods of their use” (Janssen Pharmaceutica NV, priority 2021, dated 2026) one finds IC50 data, which are given here for 1 compound.

This test relates to B-cell activation. The experiment in a line: Rat whole blood assay, anti-IgD-induced B-cell activation (CD86). Format: cell-based, Wistar rat. The conditions noted are these: anti-IgD stimulation, n=2, read-out: IC50, inhibition of B-cell activation in rat whole blood. From the text: The compound of Formula (III) Inhibits B-cell receptor activation—Rat whole blood assays were used to assess the ability of the compound of Formula (III) to inhibit activation of primary B cells in whole blood. The assay used anti-IgD stimulation to trigger B-cell activation. Cell activation in freshly isolated blood was quantified by staining for cell surface expression of B220 to identify B cells and a cell activation marker CD86.
Rat Whole Blood Assay-Anti-rat IgD was purchased from Bio-Rad AbD Serotec, Ltd. (Oxford, United Kingdom). Rat B220-PE and rat CD86-FITC were purchased from eBioscience (San Diego, CA). Lysing buffer was purchased from BD Biosciences (San Diego, CA). To determine the potency of each compound, inhibition of anti-IgD-induced activation of B cells in rat whole blood was assessed by flow cytometry. […]
Inhibition percentage was determined by the following equation: Inhibition %=(ActBstim−ActBcompound)×100/(ActBstim−ActBunstim), where […], ActBunstim, and ActBcompound refer to the percentage of activated B cells of the stimulated (no compound), unstimulated (no antibody), and compound treated wells, respectively. The IC50 for each compound was then calculated from the inhibition % of the titrations using a 4-PL fit. […]

Consider `C=CC(=O)N[C@H]1CCC[C@H]1NC(=O)c1sc2nccc3c2c1NC(=O)N3c1cnc(CC(C)C)cc1C` (atropisomer, axis not shown) [compound of Formula (III), N-((1R,2S)-2-Acrylamidocyclopentyl)-5-(S)-(6-isobutyl-4-methylpyridin-3-yl)-4-oxo-4,5-dihydro-3H-1-thia-3,5,8-triazaacenaphthylene-2-carboxamide], for which the IC50 was 41 ± 11.7 nM.
